Values quoted from earlier work in Sander's compilation of Henry's law constants.
Several values for one entry are separate records, joined by “and”; a condition that tells them apart may be missing. Equal entries are not always repeated.

Legend:
[1] = Henry solubility constant Hcp at 310 K (mol/(m3 Pa)); conditions: cited value
[2] = Henry solubility constant Hcp at 298.15 K (mol/(m3 Pa)); conditions: cited value
[3] = Henry solubility constant Hcp at 295 K (mol/(m3 Pa)); conditions: cited value
[4] = Henry solubility constant Hcp at 277 K (mol/(m3 Pa)); conditions: reference: Roth (1942); cited value
[5] = Henry solubility constant Hcp at 311 K (mol/(m3 Pa)); conditions: reference: Orcutt and Seevers (1937b); cited value
[6] = Henry solubility constant Hcp at 293 K (mol/(m3 Pa)); conditions: cited value
[7] = reference: Burkholder et al. (2015)
[8] = reference: Burkholder et al. (2019)
[9] = reference: Sander et al. (2006)
[10] = reference: Sander et al. (2011)
[11] = reference: Nicholson et al. (1984)

Henry solubility constant Hcp at 310 K ([1]; reference: Nahon et al. (2000))	Henry solubility constant Hcp ([2]; reference: Brockbank (2013))	Compound	Henry solubility constant Hcp [2, 7]	Henry solubility constant Hcp [2, 8]	Henry solubility constant Hcp [2, 9]	Henry solubility constant Hcp [2, 10]	also measured
0.019	0.02	CCCCCCCC=O [octanal]					
		CC(=O)OO[N+](=O)[O-] [peroxyacetyl nitrate]	0.028	0.028	0.028	0.028	Henry solubility constant Hcp at 295 K ([3]; reference: Schwartz (1986)): 0.036; Henry solubility constant Hcp ([2]; reference: Gaffney and Senum (1984)): 0.036; Henry solubility constant Hcp ([2]; reference: Leu and Zhang (1999)): 0.029; Henry solubility constant Hcp ([2]; reference: Pandis and Seinfeld (1989)): 0.029
0.027	0.025	CCCC(=O)OCC [ethyl butanoate]					
0.036	0.039	CCCC(=O)OC [methyl butanoate]					
		ClOCl [dichlorine monoxide]					Henry solubility constant Hcp at 277 K [4]: 0.07; Henry solubility constant Hcp [2]: 0.034 and 0.076
		[N-]=[N+]=O [dinitrogen monoxide]	0.00024	0.00024	0.00024	0.00024	Henry solubility constant Hcp at 310 K ([1]; reference: Harris (1951)): 0.00017; Henry solubility constant Hcp at 311 K [5]: 0.00017; Henry solubility constant Hcp at 293 K ([6]; reference: Macintosh et al. (1958)): 0.0003; Henry solubility constant Hcp at 293 K ([6]; reference: Nunn (1958)): 0.00028; Henry solubility constant Hcp ([2]; reference: Gordon (1895)): 0.00026; Henry solubility constant Hcp ([2]; reference: Young (1981b)): 0.00024
		O=O [oxygen]	1.3e-05	1.3e-05	1.3e-05	1.3e-05	Henry solubility constant Hcp at 293 K ([6]; reference: Nunn (1958)): 1.4e-05; Henry solubility constant Hcp ([2]; reference: Battino (1981)): 1.3e-05; Henry solubility constant Hcp ([2]; reference: Battino et al. (1983)): 1.3e-05; Henry solubility constant Hcp ([2]; reference: Himmelblau (1960)): 1.2e-05
		CC(=O)CO [1-hydroxypropanone]					Henry solubility constant Hcp at 295 K ([3]; reference: Lee and Zhou (1993)): 77
		ClC(Br)Br [dibromochloromethane]	0.0086	0.0086	0.0086	0.0086	Henry solubility constant Hcp at 293 K [6, 11]: 0.011; Henry solubility constant Hcp ([2]; reference: Fogg and Sangster (2003)): 0.0087; Henry solubility constant Hcp ([2]; reference: Goldstein (1982)): 0.012; Henry solubility constant Hcp [2, 11]: 0.012
		BrBr [bromine (molecular)]	0.0072	0.0072	0.0072	0.0072	Henry solubility constant Hcp at 293 K ([6]; reference: Giona et al. (1969)): 0.0092; Henry solubility constant Hcp ([2]; reference: Jenkins and King (1965)): 0.0079
		C#C [ethyne]	0.00041	0.00041	0.00041	0.00041	Henry solubility constant Hcp at 293 K ([6]; reference: Vtovec (1968)): 0.00044; Henry solubility constant Hcp ([2]; reference: Deno and Berkheimer (1960)): 0.00041; Henry solubility constant Hcp ([2]; reference: Fogg et al. (2002)): 0.00041; Henry solubility constant Hcp ([2]; reference: Schoen (1923)): 0.00041
		O=CCO [2-hydroxyethanal]					Henry solubility constant Hcp at 295 K ([3]; reference: Lee and Zhou (1993)): 990

Compound	Henry solubility constant Hcp at 310 K ([1]; reference: Nahon et al. (2000))	Henry solubility constant Hcp ([2]; reference: Brockbank (2013))	Henry solubility constant Hcp [2, 7]	Henry solubility constant Hcp [2, 8]	Henry solubility constant Hcp [2, 9]	Henry solubility constant Hcp [2, 10]	also measured
CCOC(C)=O [ethyl ethanoate]	0.039	0.065	0.059	0.065		0.059	
